Legend:
[1] = Aqueous solubility; settings: aqueous solubility
[2] = Microsomal metabolic stability, rat liver microsomes (RLM); settings: rat liver microsomes

| Compound | Solub. [1] | t1/2 (min, RLM) [2] | PAMPA | PAMPA permeability (pH 7.4) | Solub. (μg/ml) [1] |
| --- | --- | --- | --- | --- | --- |
| O=c1c2cc(F)ccc2n2c(=S)[nH]nc2n1CCP(=O)(O)O [compound 77] | >51 µg/mL |  |  |  |  |
| 4-(3-aminopropyl)-9-fluoro-1-thioxo-2,4-dihydro-[1,2,4]triazolo[4,3-a]quinazolin-5(1H)-one [compound 69] |  | >30 min |  |  |  |
| NS(=O)(=O)CCCC(=O)NCCCn1c(=O)c2cc(F)ccc2n2c(=S)[nH]nc12 [compound 107] | 42.4 µg/mL | >30 min | 3.0 ×10⁻⁶ cm/s |  |  |
| O=c1c2cc(F)ccc2n2c(=S)[nH]nc2n1CCc1cccnc1 [Cmpd 84] |  |  | <1 ×10⁻⁶ cm/s |  |  |
| O=C(O)CCC(=O)NCCCn1c(=O)c2cc(F)ccc2n2c(=S)[nH]nc12 [compound 106] | >58 µg/mL | >30 min | <1 ×10⁻⁶ cm/s |  |  |
| NCCOCCOCCOCCC(=O)NCCCn1c(=O)c2cc(F)ccc2n2c(=S)[nH]nc12 [compound 98] | 36.1 µg/mL | >30 min |  |  |  |
| CC(C)OCCCn1c(=O)c2cc(Cl)ccc2n2c(=S)[nH]nc12 [compound 56] | 8.6 µg/mL |  |  |  |  |
| O=C(NCCCn1c(=O)c2cc(F)ccc2n2c(=S)[nH]nc12)C1CCCCN1 (centres unmarked) [compound 112] | >60 µg/mL | >30 min |  |  |  |
| O=c1c2ccccc2n2c(=S)[nH]nc2n1CCC(F)(F)F [compound 27] | 23.3 µg/mL | >30, min | 82 ×10⁻⁶ cm/s |  |  |
| CC(C)(C)OC(=O)N1CCN(CCn2c(=O)c3cc(F)ccc3n3c(=S)[nH]nc23)CC1 [compound 92] | 20.5 µg/mL | 26.3 min |  |  |  |
| O=c1c2cc(F)ccc2n2cnnc2n1CCc1ccccc1 [compound 18] | 14.8 µg/mL | 11.8 min | 924 ×10⁻⁶ cm/s |  |  |
| O=c1c2cc(Cl)ccc2n2c(=S)[nH]nc2n1CCC(F)(F)F [compound 55] | 5.1 µg/mL | >30 min | 257 ×10⁻⁶ cm/s |  |  |
| O=c1c2cc(F)ccc2n2c(=S)[nH]nc2n1CCc1ccccc1Cl [compound 81] | 3.0 µg/mL | 22.8 min |  |  |  |
| O=c1c2cc(F)ccc2n2c(=S)[nH]nc2n1CCN1CCCCC1 [compound 88] | 2.4 µg/mL | >30 min | 358 ×10⁻⁶ cm/s |  |  |
| Cc1nnc2n(CCc3ccccc3)c(=O)c3cc(F)ccc3n12 [compound 17] | 11.0 µg/mL | 10.7 min |  |  |  |
| CN(C)c1ccc2c(c1)c(=O)n(CCc1ccccc1)c1n[nH]c(=S)n21 [Cmpd 45] |  |  | 356 ×10⁻⁶ cm/s |  |  |
| CCCn1c(=O)c2ccccc2n2c(=S)n(CN(CC)CC(C)C)nc12 [compound 38] | 8.7 µg/mL |  |  |  |  |
| O=C(Cc1cccc(C(F)(F)F)c1)NCCCn1c(=O)c2cc(F)ccc2n2c(=S)[nH]nc12 [compound 132, N-(3-(7-fluoro-5-oxo-1-thioxo-1,2-dihydro-[1,2,4]triazolo[4,3-a]quinazolin-4(5H)-yl)propyl)-2-(3-(trifluoromethyl)phenyl)acetamide] | 26.8 µg/mL | 17.3 min |  |  |  |
| CN1CCCC1CCn1c(=O)c2cc(F)ccc2n2c(=S)[nH]nc12 (centres unmarked) [compound 87] | 17.8 µg/mL | >30 min |  |  |  |
| CC(C)(C)[C@H]1CC[C@H](C(=O)NCCCn2c(=O)c3cc(F)ccc3n3c(=S)[nH]nc23)CC1 [compound 109] | 1.1 µg/mL | >30 min |  |  |  |
| O=C(NCCCn1c(=O)c2cc(F)ccc2n2c(=S)[nH]nc12)c1ccc(Cn2ccnc2)cc1 [compound 119, 4-((1H-imidazol-1-yl)methyl)-N-(3-(7-fluoro-5-oxo-1-thioxo-1,2-dihydro-[1,2,4]triazolo[4,3-a]quinazolin-4(5H)-yl)propyl)benzamide] | 13.7 µg/mL | >30 min |  |  |  |
| NCCCCCC(=O)NCCCn1c(=O)c2cc(F)ccc2n2c(=S)[nH]nc12 [compound 100] | 31.8 µg/mL | >30 min |  |  |  |
| CNC(=S)N1CN(CCc2ccccc2)C(=O)c2cc(F)ccc21 [compound 62] | 4.5 µg/mL | 2.2 min | 161 ×10⁻⁶ cm/s |  |  |
| NCCn1c(=O)c2cc(F)ccc2n2c(=S)[nH]nc12 [compound 67] | >41 µg/mL | >30 min |  |  |  |
| CN(C)CCn1c(=O)c2cc(F)ccc2n2c(=S)[nH]nc12 [compound 70] | >45 µg/mL | >30 min | 177 ×10⁻⁶ cm/s |  |  |

| Compound | Solub. [1] | t1/2 (min, RLM) [2] | PAMPA | PAMPA permeability (pH 7.4) | Solub. (μg/ml) [1] |
| --- | --- | --- | --- | --- | --- |
| O=c1c2cc(F)ccc2n2c(=S)[nH]nc2n1CCc1ccccn1 [compound 83] | 13.0 µg/mL | >30 min | 355 ×10⁻⁶ cm/s | moderate to good permeability |  |
| CCOP(=O)(CCn1c(=O)c2cc(F)ccc2n2c(=S)[nH]nc12)OCC [compound 78] | >59 µg/mL | >30 min |  |  |  |
| NC1CCC(C(=O)NCCCn2c(=O)c3cc(F)ccc3n3c(=S)[nH]nc23)CC1 (centres unmarked) [compound 111] | 38.8 µg/mL | >30 min |  |  |  |
| O=c1c2cc(F)ccc2n2c(=S)[nH]nc2n1CCCc1ccccc1 [compound 53] | <1 µg/mL | 8.8 min |  |  |  |
| O=C(CN1CCOCC1)NCCCn1c(=O)c2cc(F)ccc2n2c(=S)[nH]nc12 [compound 118] | >62 µg/mL | >30 min | <1 ×10⁻⁶ cm/s |  |  |
| O=c1c2cc(F)ccc2n2c(=S)[nH]nc2n1CCCO [compound 66] | >43 µg/mL | >30 min | 222 ×10⁻⁶ cm/s |  |  |
| CC(=O)NCCn1c(=O)c2cc(F)ccc2n2c(=S)[nH]nc12 [compound 72] | >47 µg/mL | >30 min |  |  |  |
| O=C(Cc1ccc(F)cc1)NCCCn1c(=O)c2cc(F)ccc2n2c(=S)[nH]nc12 [compound 123, N-(3-(7-fluoro-5-oxo-1-thioxo-1,2-dihydro-[1,2,4]triazolo[4,3-a]quinazolin-4(5H)-yl)propyl)-2-(4-fluorophenyl)acetamide] |  | 26.3 min |  |  |  |
| CC(C)CNC(=O)CCn1c(=O)c2ccccc2n2c(=S)[nH]nc12 [compound 32] | 30.8 µg/mL |  |  |  |  |
| CC(C)(C)OC(=O)CC[C@@H](NC(=O)OC(C)(C)C)C(=O)NCCCn1c(=O)c2cc(F)ccc2n2c(=S)[nH]nc12 [compound 102] | 20.4 µg/mL | 25.1 min |  |  |  |
| CCn1c(=O)c2cc(F)ccc2n2c(=S)[nH]nc12 [compound 63] | >39 µg/mL | >30 min |  |  |  |
| CN1CCN(CCn2c(=O)c3cc(F)ccc3n3c(=S)[nH]nc23)CC1 [compound 91] | >54 µg/mL | >30 min |  |  |  |
| O=C(CC1CCNCC1)NCCCn1c(=O)c2cc(F)ccc2n2c(=S)[nH]nc12 [compound 116] | 37.5 µg/mL | >30 min |  |  |  |
| O=C(NCCCn1c(=O)c2cc(F)ccc2n2c(=S)[nH]nc12)C1CCCNC1 (centres unmarked) [compound 113] | 29.6 µg/mL | >30 min |  |  |  |
| CCCn1c(=O)c2ccccc2n2c(=S)n(CN(C)C3CC3)nc12 [compound 35] |  |  |  |  | Insol. |
| CC(C)(C)OC(=O)CC[C@H](NC(=O)OC(C)(C)C)C(=O)NCCCn1c(=O)c2cc(F)ccc2n2c(=S)[nH]nc12 [Cmpd 103] |  |  | 744 ×10⁻⁶ cm/s |  |  |
| O=c1c2ccccc2n2c(=O)[nH]nc2n1CCc1ccccc1 [compound 15] | <1 µg/mL |  |  |  |  |
| CS(=O)(=O)NCCCn1c(=O)c2cc(F)ccc2n2c(=S)[nH]nc12 [compound 76] | 34 µg/mL | >30 min |  |  |  |
| CC(C)n1c(=O)c2ccccc2n2c(=S)[nH]nc12 [compound 26] | 19.5 µg/mL |  |  |  |  |
| CC(C)NC(=O)CCn1c(=O)c2cc(Cl)ccc2n2c(=S)[nH]nc12 [compound 57] | 8.1 µg/mL |  |  |  |  |
| CC(C)(C)OC(=O)NCCCCCC(=O)NCCCn1c(=O)c2cc(F)ccc2n2c(=S)[nH]nc12 [Cmpd 101] |  |  | 405 ×10⁻⁶ cm/s |  |  |
| CC(C)(C)OC(=O)N1CC(CCn2c(=O)c3cc(F)ccc3n3c(=S)[nH]nc23)C1 [compound 86] | 15 µg/mL |  | 229 ×10⁻⁶ cm/s |  |  |
| O=C(NCCCn1c(=O)c2cc(F)ccc2n2c(=S)[nH]nc12)C1CCNCC1 [compound 114] | >60 µg/mL | >30 min |  |  |  |
| O=C(NCCCn1c(=O)c2cc(F)ccc2n2c(=S)[nH]nc12)C1CCOCC1 [compound 115] | <1 µg/mL |  | 8.0 ×10⁻⁶ cm/s |  |  |
| O=C(Cc1ccc(O)cc1)NCCCn1c(=O)c2cc(F)ccc2n2c(=S)[nH]nc12 [compound 127, N-(3-(7-fluoro-5-oxo-1-thioxo-1,2-dihydro-[1,2,4]triazolo[4,3-a]quinazolin-4(5H)-yl)propyl)-2-(4-hydroxyphenyl)acetamide] | 31.0 µg/mL | >30 min |  |  |  |

From patent publication US20230365568A1, “PLK1 POLO BOX DOMAIN INHIBITORS AND METHOD OF TREATING CANCER” (The United States of America,as represented by the …, priority 2020, published 2023)
